This is an account of results in article PMC6277434, “Discovery of a potent HMG-CoA reductase degrader that eliminates statin-induced reductase accumulation and lowers cholesterol” (Nature Communications, 2018).

The target of this assay is T1, HMGCR (Cricetulus griseus, UniProt P00347).
T1 construct: endogenous in cells; host or cells: CHO-7, CHG, SRD-13A, SRD-15
T1 sequence (P00347 1-887): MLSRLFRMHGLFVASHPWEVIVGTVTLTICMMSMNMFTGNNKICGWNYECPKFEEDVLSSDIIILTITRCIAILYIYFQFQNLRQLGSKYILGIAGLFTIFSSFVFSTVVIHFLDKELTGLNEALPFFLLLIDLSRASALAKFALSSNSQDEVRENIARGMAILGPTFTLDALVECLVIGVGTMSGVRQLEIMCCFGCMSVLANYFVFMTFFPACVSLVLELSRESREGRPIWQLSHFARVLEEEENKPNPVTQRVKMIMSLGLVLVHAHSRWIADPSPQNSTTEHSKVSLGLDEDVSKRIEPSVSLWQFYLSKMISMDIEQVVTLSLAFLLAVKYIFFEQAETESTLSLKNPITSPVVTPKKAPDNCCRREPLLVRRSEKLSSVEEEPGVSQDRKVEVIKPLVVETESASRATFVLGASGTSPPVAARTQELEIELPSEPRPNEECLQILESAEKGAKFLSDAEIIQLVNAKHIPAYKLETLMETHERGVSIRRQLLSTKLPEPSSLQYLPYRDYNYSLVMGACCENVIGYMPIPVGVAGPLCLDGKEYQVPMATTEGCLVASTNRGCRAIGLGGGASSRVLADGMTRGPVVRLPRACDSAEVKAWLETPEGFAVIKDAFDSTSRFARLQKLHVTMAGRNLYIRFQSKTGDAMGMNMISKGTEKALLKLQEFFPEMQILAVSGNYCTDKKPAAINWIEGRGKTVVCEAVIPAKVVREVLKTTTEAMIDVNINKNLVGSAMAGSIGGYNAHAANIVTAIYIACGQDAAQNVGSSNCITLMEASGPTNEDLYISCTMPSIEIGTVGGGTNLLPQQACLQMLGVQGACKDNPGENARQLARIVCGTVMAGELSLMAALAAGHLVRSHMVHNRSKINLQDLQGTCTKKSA
Description: Immunoblotting of endogenous HMGCR protein in CHO-7 (or CHG) cells. It is filed as cell-based, Chinese hamster. Particulars: for endogenous HMGCR protein (immunoblot), mean: DMSO = 100; for HMGCR protein fold change: untreated = 1. As to the method:
CHO-7 (Chinese hamster ovary cell, a clone of CHO-K1 cell line selected for growth in LPDS) and Huh7 (a human hepatocellular carcinoma cell line), SRD-13A (a Scap-deficient CHO-7 cell line) and SRD-15 (an Insig-1 and Insig-2-deficient CHO-7 cell line) were generous gifts from Russell Debose-Boyd at UT Southwestern Medical Center, USA. All cells were grown in a monolayer at 37 °C with 5% CO2. Huh7 cells were maintained in medium A supplemented with 10% FBS. CHO-7 and SRD-15 cells were maintained in medium B supplemented with 5% FBS. SRD-13A cells were maintained in medium B with 5% FBS, 5 μg ml^−1 cholesterol, 1 mM sodium mevalonate, 10 μM sodium oleate. No cell lines used in this study were found in the database of commonly misidentified cell lines that is maintained by ICLAC and NCBI Biosample. The cell lines have not been authenticated recently. No test for mycoplasma contamination was performed.
Cells were harvested and homogenized in the RIPA buffer (50 mM Tris-HCl, pH 8.0, 150 mM NaCl, 2 mM MgCl2, 1.5% NP-40, 0.1% SDS, and 0.5% sodium deoxycholate) supplemented with protease cocktail inhibitor, 10 μM MG-132, 10 μg ml^−1 leupeptin and 1 mM phenylmethylsulfonyl fluoride. The protein concentrations of lysates were determined using BCA method (Beyotime). Samples were mixed with the membrane protein solubilization buffer (62.5 mM Tris-HCl, pH 6.8, 15% SDS, 8 M urea, 10% glycerol, and 100 mM DTT) plus the 4× loading buffer (150 mM Tris-HCl, pH 6.8, 12% SDS, 30% glycerol, 6% 2-mercaptoethanol, and 0.02% bromophenol blue) and incubated for 30 min at 37 °C. Proteins were resolved by SDS-PAGE and transferred to nitrocellulose membranes (GE Healthcare). Immnoblots were blocked with 5% non-fat milk in TBS containing 0.075% Tween-20 (TBST) and probed with indicated antibodies overnight at 4 °C. After washing in TBST for five times, blots were incubated with HRP-conjugated secondary antibodies for 2 h at room temperature. Immunoreactivity was developed with Clarity Western ECL chemiluminescent substrates (170–5061, Bio-Rad). Western blot images were captured by Amersham Imager 600 (GE Healthcare), and integrated optical intensities of each band were quantified by Image-Pro Plus 6 software (Media Cybernetics). Uncropped blots are shown in Supplementary Figs. 9–13.
(In general: In western blotting, separated proteins are transferred to a membrane and probed.)

The structures appear in SMILES notation.

Take `C=CCC(O)(CC=C)CCCC(C)C1CCC2C3C(O)C=C4C(C)(C)C(O)CCC4(C)C3CCC12C` (stereo not shown) [Cmpd 81]: the “endogenous HMGCR protein (immunoblot), mean” value was determined as 96.5896 (CHO-7, 0.01 uM, 16 h); 105.12 (CHO-7, 0.03 uM, 16 h); 84.2505 (CHO-7, 0.1 uM, 16 h); 66.4121 (CHO-7, 0.3 uM, 16 h); 9.931 (CHO-7, 1 uM, 16 h); 3.826 (CHO-7, 3 uM, 16 h). The “endogenous HMGCR protein (immunoblot), mean” value is, setting by setting: (CHO-7, 10 uM, 16 h) 1.121; (CHO-7, 20 uM, 16 h) 1.6114. Also, under “CHO-7, 10 μM MG-132, 5 h”, the “HMGCR degradation induced by Cmpd 81 on addition of proteasome inhibitor MG-132” value was “completely blocked”. Moreover, the “HMGCR protein fold change” value (CHO-7, Cmpd 81 1 μM with lovastatin 1 μM) was 5.141; the “HMGCR protein fold change” value (CHO-7, Cmpd 81 1 μM, without lovastatin) turned out to be 0.3231; the “HMGCR protein fold change” value (CHO-7, Cmpd 81 3 μM with lovastatin 1 μM) is on record as 1.706; the “HMGCR protein fold change” value (CHO-7, Cmpd 81 3 μM, without lovastatin) came out at 0.1204; the “HMGCR protein fold change” value (CHO-7, Cmpd 81 10 μM with lovastatin 1 μM) was found to be 0.399. Under “CHO-7 cells, 1 μM, 16 h”, the “reduction in HMGCR” value was “more than 80%”. Also, for the setting “CHO-7 cells, 16 h, read-out: EC50 to decrease endogenous HMGCR (dose–response immunoblotting)”, the EC50 came out at 390 nM. The “HMGCR protein induced by simvastatin, pravastatin, fluvastatin, atorvastatin and rosuvastatin” value (cultured cells) is “similarly reduced”.

`CC[C@H](C)C(=O)O[C@H]1C[C@@H](C)C=C2C=C[C@H](C)[C@H](CC[C@@H]3C[C@@H](O)CC(=O)O3)[C@H]21` [Lovastatin, lovastatin]: the “HMGCR protein level, mean” value is, setting by setting: (CHO-7, lovastatin 0.001 uM, 16 h, DMSO = 1) 1.706; (CHO-7, lovastatin 0.003 uM, 16 h, DMSO = 1) 2.872; (CHO-7, lovastatin 0.01 uM, 16 h, DMSO = 1) 6.395; (CHO-7, lovastatin 0.03 uM, 16 h, DMSO = 1) 10.2955; (CHO-7, lovastatin 0.1 uM, 16 h, DMSO = 1) 11.6269; (CHO-7, lovastatin 0.3 uM, 16 h, DMSO = 1) 13.3691. In addition, the “HMGCR protein level, mean” value is recorded as 14.123 (CHO-7, lovastatin 1 uM, 16 h, DMSO = 1); 14.7817 (CHO-7, lovastatin 3 uM, 16 h, DMSO = 1); 14.2587 (CHO-7, lovastatin 10 uM, 16 h, DMSO = 1). Besides, under “CHO-7, lovastatin 1 μM alone”, the “HMGCR protein fold change” value is reported as 16.2295. In addition, the “increase of HMGCR protein (maximum increment)” value (CHO-7 cells, statin 16 h, DMSO = 1) is ~ 15 fold.

What is called EC50 is the concentration giving half of the maximal effect.
